Assay results: ChEMBL document CHEMBL1149509, “Search of antitubercular activities in tetrahydroacridines: synthesis and biological evaluation” (Bioorg Med Chem Lett, 2006)
Converted amounts (≈) assume the structure as drawn.

Tests used:
[1] = system: Mycobacterium tuberculosis; experiment: Antitubercular activity against Mycobacterium tuberculosis H37Rv; type: functional
[2] = Partition coefficient, log P of the compound; type: physicochemical; settings: octanol/water
[3] = system: Mycobacterium tuberculosis; experiment: Antitubercular activity against Mycobacterium tuberculosis H37Ra; type: functional

Row | Compound | MIC [1] | logP ([2]; read-out: LogP) | MIC [3] | logP [2]
1 | Clc1ccc(Oc2c3c(nc4ccccc24)CCCC3)c(Cl)c1 | > 12.5 µg/mL | 6.37 | > 25 µg/mL | –
2 | Cc1ccc(Oc2c3c(nc4ccccc24)CCCC3)cc1C | > 12.5 µg/mL | 6.23 | > 25 µg/mL | –
3 | CCCCCCNc1c2c(nc3ccccc13)CCCC2 | 6.25 µg/mL (≈ 22.1 µM) | 5.29 | 6.25 µg/mL (≈ 22.1 µM) | –
4 | OCCNc1c2c(nc3ccccc13)CCCC2 | 12.5 µg/mL (≈ 51.6 µM) | 2.69 | > 25 µg/mL | –
5 | c1ccc(Sc2c3c(nc4ccccc24)CCCC3)cc1 | > 12.5 µg/mL | 5.82 | > 25 µg/mL | –
6 | c1ccc2c(NCCCCCCCNc3c4c(nc5ccccc35)CCCC4)c3c(nc2c1)CCCC3 | 12.5 µg/mL (≈ 25.4 µM) | 7.99 | 6.25 µg/mL (≈ 12.7 µM) | –
7 | Clc1ccc(Oc2c3c(nc4ccccc24)CCCC3)cc1 | > 12.5 µg/mL | 5.81 | > 25 µg/mL | –
8 | Fc1ccc(Oc2c3c(nc4ccccc24)CCCC3)cc1 | > 12.5 µg/mL | 5.41 | > 25 µg/mL | –
9 | c1ccc(CNc2c3c(nc4ccccc24)CCCC3)cc1 | > 12.5 µg/mL | 4.94 | 25 µg/mL (≈ 86.7 µM) | –
10 | c1ccc2c(NCCCCCNc3c4c(nc5ccccc35)CCCC4)c3c(nc2c1)CCCC3 | 12.5 µg/mL (≈ 26.9 µM) | 7.15 | 25 µg/mL (≈ 53.8 µM) | –
11 | c1ccc2c(N3CCOCC3)c3c(cc2c1)CCCC3 | 12.5 µg/mL (≈ 46.8 µM) | 3.6 | > 25 µg/mL | –
12 | C=CCc1ccc(Oc2c3c(nc4ccccc24)CCCC3)c(OC)c1 | > 12.5 µg/mL | 6.18 | 25 µg/mL (≈ 72.4 µM) | –
13 | Clc1cccc(CCNc2c3c(nc4ccccc24)CCCC3)c1 | > 12.5 µg/mL | 5.78 | 25 µg/mL (≈ 74.2 µM) | –
14 | NNC(=O)c1ccncc1 [ISONIAZID] | 0.65 µg/mL (≈ 4.74 µM) | – | – | –
15 | COc1ccc(Nc2c3c(nc4ccccc24)CCCC3)cc1 | > 12.5 µg/mL | 5.05 | > 25 µg/mL | –
16 | CCCCCCCCNc1c2c(nc3ccccc13)CCCC2 | 3.12 µg/mL (≈ 10 µM) | 6.12 | 1.56 µg/mL (≈ 5.02 µM) | –
17 | CO[C@H]1/C=C/O[C@@]2(C)Oc3c(C)c(O)c4c(O)c(c(/C=N/N5CCN(C)CC5)c(O)c4c3C2=O)NC(=O)/C(C)=C\C=C\[C@H](C)[C@H](O)[C@@H](C)[C@@H](O)[C@@H](C)[C@H](OC(C)=O)[C@@H]1C [RIFAMPIN] | 0.75 µg/mL (≈ 0.911 µM) | – | – | –
18 | CC[C@@H](CO)NCCN[C@@H](CC)CO [ETHAMBUTOL] | 3.25 µg/mL (≈ 15.9 µM) | – | – | –
19 | c1ccc2c(NCCCCCCCCCCNc3c4c(nc5ccccc35)CCCC4)c3c(nc2c1)CCCC3 | 12.5 µg/mL (≈ 23.4 µM) | – | 3.12 µg/mL (≈ 5.83 µM) | 9.24
20 | CCCCCCCCCCCCNc1c2c(nc3ccccc13)CCCC2 | 0.78 µg/mL (≈ 2.13 µM) | 7.79 | 6.25 µg/mL (≈ 17 µM) | –
